From patent US9980943B2, “Methods of treating muscular dystrophy” (BOARD OF REGENTS OF THE NEVADA SYSTEM OF HIGHER EDUCATION, …, priority 2013, dated 2018) come the findings set out here.

Each structure is given as a SMILES string.

Type in all cases: cell-based, mouse
The subject of assay [1] is β-galactosidase in CMV-LacZ C2C12 myotubes. Briefly: CMV-LacZ secondary screen in C2C12 myotubes (β-Gal stabilizing assay). The note with it: for CMV-LACZ in Myotubes (β-galactosidase activity relative to DMSO): CMV-LacZ C2C12 myotubes, 96-well format. Summed up:
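Stable CMV-LacZ C2C12 clone; six-point curve 0.5–40 μM; duplicates.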

In assay [2] the test system is α7 integrin (LacZ reporter in α7βgal+/− myoblasts). As to the kind of experiment: Myoblast α7+/LacZ integrin FDG assay (Burkin assay in myoblasts, 96-well). The note with it: α7+/LacZ myoblasts, 96-well.
For assay [3], the system named is α7 integrin (LacZ reporter in α7+/LacZ myotubes). Briefly: Myotube α7 integrin FDG assay (Burkin assay in myotubes, 96-well). Conditions: myotubes.
[4] abbreviates: 5 uM, C2C12 CMV-LacZ myotubes, fold relative to DMSO.
[5] abbreviates: 10 uM, C2C12 CMV-LacZ myotubes, fold relative to DMSO.
The mark [6] stands for this setting: 20 uM, C2C12 CMV-LacZ myotubes, fold relative to DMSO.
Where [7] appears, read: 40 uM, C2C12 CMV-LacZ myotubes, fold relative to DMSO.

With `COc1ccc(C)cc1NC(=O)c1ccc2c(O)c(S(=O)(=O)c3ccccc3)c(=O)[nH]c2c1` [MLS001122718-01], the “CMV-LACZ in Myotubes, signal relative to DMSO” value in assay [1] (setting [4]) is on record as 0.8862; in assay [1] (setting [5]), 0.9662; in assay [1] (setting [6]), 0.9567; in assay [1] (setting [7]), 0.89. In addition, the “Burkin Assay in Myoblasts, signal relative to DMSO” value in assay [2] (0.5 uM) was 1.1056; in assay [2] (1 uM), 1.041; in assay [2] (5 uM), 1.033; in assay [2] (10 uM) it was 0.9092; in assay [2] (20 uM), 0.9923; in assay [2] (40 uM), 0.9332. Also, the “Burkin Assay in Myotubes, α7 integrin LacZ reporter signal relative to DMSO” value in assay [3] (0.5 uM) came out at 1.011; in assay [3] (1 uM), 0.9435; in assay [3] (5 uM) it was 1.069; in assay [3] (10 uM) it was 1.106; in assay [3] (20 uM), 1.089; in assay [3] (40 uM), 0.9804.
`Cc1cc(NC(=O)CN2C(=O)/C(=C/c3ccccc3F)SC2=S)no1` [MLS001219159-01]: the “CMV-LACZ in Myotubes, signal relative to DMSO” value is given as 0.9354 in assay [1] (setting [4]), 0.9316 in assay [1] (setting [5]), 0.9636 in assay [1] (setting [6]) and 1.023 in assay [1] (setting [7]). For the same compound, the “Burkin Assay in Myoblasts, value relative to DMSO” value in assay [2] (0.5 uM) turned out to be 0.9597; in assay [2] (1 uM), 1.059; in assay [2] (5 uM) it was 0.9161; in assay [2] (10 uM) it was 0.9644; in assay [2] (20 uM), 0.9199; in assay [2] (40 uM), 0.952. Besides, the “Burkin Assay in Myotubes (signal relative to DMSO)” value in assay [3] (0.5 uM) is 0.861; in assay [3] (1 uM), 0.9965; in assay [3] (5 uM) it was 0.807; in assay [3] (10 uM), 1.064; in assay [3] (20 uM), 0.9474; in assay [3] (40 uM), 0.9507.
For the compound `CC1(C)Cc2c(ccc3ccccc23)C(=O)N1` [MLS000525404-01], the fold induction at 5 µM in assay [1] (Mus musculus, C2C12, read-out: CMV-LACZ in Myotubes, signal relative to DMSO, 5 uM, C2C12 CMV-LacZ myotubes, fold relative to DMSO) came out at 0.76; in assay [2] (Mus musculus, Myoblast, 48 h, 5 uM, read-out: Burkin Assay in Myoblasts, value relative to DMSO), 1.12; in assay [3] (Mus musculus, Myotube, 5 uM, read-out: Burkin Assay in Myotubes (signal relative to DMSO)), 1.12. In addition, the fold induction at 10 µM in assay [1] (Mus musculus, C2C12, read-out: CMV-LACZ in Myotubes, signal relative to DMSO, 10 uM, C2C12 CMV-LacZ myotubes, fold relative to DMSO) was 0.873; in assay [2] (Mus musculus, Myoblast, 48 h, 10 uM, read-out: Burkin Assay in Myoblasts, value relative to DMSO), 1.28; in assay [3] (Mus musculus, Myotube, 10 uM, read-out: Burkin Assay in Myotubes (signal relative to DMSO)), 1.09. Further, the fold induction at 20 µM in assay [1] (Mus musculus, C2C12, read-out: CMV-LACZ in Myotubes, signal relative to DMSO, 20 uM, C2C12 CMV-LacZ myotubes, fold relative to DMSO) was 0.841; in assay [2] (Mus musculus, Myoblast, 48 h, 20 uM, read-out: Burkin Assay in Myoblasts, value relative to DMSO) it was 1.46; in assay [3] (Mus musculus, Myotube, 20 uM, read-out: Burkin Assay in Myotubes (signal relative to DMSO)), 1.19. Also, the fold induction at 40 µM was 0.75 in assay [1] (Mus musculus, C2C12, read-out: CMV-LACZ in Myotubes, signal relative to DMSO, 40 uM, C2C12 CMV-LacZ myotubes, fold relative to DMSO); 1.79 in assay [2] (Mus musculus, Myoblast, 48 h, 40 uM, read-out: Burkin Assay in Myoblasts, value relative to DMSO); 1.35 in assay [3] (Mus musculus, Myotube, 40 uM, read-out: Burkin Assay in Myotubes (signal relative to DMSO)). The fold induction at 0.5 µM came out at 1 in assay [2] (Mus musculus, Myoblast, 48 h, 0.5 uM, read-out: Burkin Assay in Myoblasts, value relative to DMSO) and 1.04 in assay [3] (Mus musculus, Myotube, 0.5 uM, read-out: Burkin Assay in Myotubes (signal relative to DMSO)). The fold induction at 1 µM in assay [2] (Mus musculus, Myoblast, 48 h, 1 uM, read-out: Burkin Assay in Myoblasts, value relative to DMSO) was 1.08; in assay [3] (Mus musculus, Myotube, 1 uM, read-out: Burkin Assay in Myotubes (signal relative to DMSO)), 1.04.
Turning to `COc1ccccc1C(=O)NCCOc1ccc(C(C)(C)C)cc1` [MLS001179624-01], the “CMV-LACZ in Myotubes, signal relative to DMSO” value is 0.8604 in assay [1] (setting [4]), 0.8788 in assay [1] (setting [5]), 0.452 in assay [1] (setting [6]) and 0.4965 in assay [1] (setting [7]). The “Burkin Assay in Myoblasts, signal relative to DMSO” value is given as 0.993 in assay [2] (0.5 uM); 0.9963 in assay [2] (1 uM); 0.9515 in assay [2] (5 uM); 0.9314 in assay [2] (10 uM); 0.879 in assay [2] (20 uM); 0.8828 in assay [2] (40 uM). Also, the “Burkin Assay in Myotubes, α7 integrin LacZ reporter signal relative to DMSO” value amounted to 0.9052 in assay [3] (0.5 uM); 0.9709 in assay [3] (1 uM); 1.048 in assay [3] (5 uM); 1.104 in assay [3] (10 uM); 0.8903 in assay [3] (20 uM); 0.2183 in assay [3] (40 uM).
Regarding `CCCCS(=O)(=O)N1CCCC(C(=O)NCCc2ccccc2)C1` (stereo not drawn) [MLS001163121-01], the “CMV-LACZ in Myotubes (β-galactosidase activity relative to DMSO)” value in assay [1] (5 uM) worked out at 0.8506; in assay [1] (10 uM), 0.8294; in assay [1] (20 uM) it was 0.8781; in assay [1] (40 uM) it was 0.9211. The “Burkin Assay in Myoblasts, value relative to DMSO” value in assay [2] (0.5 uM) was 1.049; in assay [2] (1 uM) it was 1.012; in assay [2] (5 uM), 0.9488; in assay [2] (10 uM), 0.9907; in assay [2] (20 uM) it was 0.8074; in assay [2] (40 uM) it was 0.9157. In addition, the “Burkin Assay in Myotubes (signal relative to DMSO)” value in assay [3] (0.5 uM) was 1.052; in assay [3] (1 uM), 0.9895; in assay [3] (5 uM) it was 0.9395; in assay [3] (10 uM), 1.173; in assay [3] (20 uM) it was 1.07; in assay [3] (40 uM) it was 1.09.
Regarding `O=C(Nc1ccccc1)Nc1ccc(Cl)c(S(=O)(=O)N2CCOCC2)c1` [MLS000773700-01], the “CMV-LACZ in Myotubes (β-galactosidase activity relative to DMSO)” value was determined as 1.126 in assay [1] (5 uM), 1.1166 in assay [1] (10 uM), 0.929 in assay [1] (20 uM) and 0.4092 in assay [1] (40 uM). The “Burkin Assay in Myoblasts, value relative to DMSO” value in assay [2] (0.5 uM) was 0.9335; in assay [2] (1 uM) it was 1.0257; in assay [2] (5 uM), 0.9059; in assay [2] (10 uM), 0.8657; in assay [2] (20 uM), 0.9227; in assay [2] (40 uM) it was 0.8721. For the same compound, the “Burkin Assay in Myotubes (signal relative to DMSO)” value in assay [3] (0.5 uM) was determined as 1.008; in assay [3] (1 uM) it was 1.019; in assay [3] (5 uM), 0.7118; in assay [3] (10 uM), 0.9516; in assay [3] (20 uM), 0.9895; in assay [3] (40 uM) it was 0.472.
